Earlier results on one compound are cited in patent publication US11441162B2, “Human gut microbiome-derived biosynthetic enzymes for production of fatty acid amides” (Massachusetts Institute of Technology, priority 2019, dated 2022).

SMILES strings stand for the structures.

This data set deals with T1, GPR119 (Homo sapiens, UniProt Q8TDV5).
T1 sequence (Q8TDV5 1-335): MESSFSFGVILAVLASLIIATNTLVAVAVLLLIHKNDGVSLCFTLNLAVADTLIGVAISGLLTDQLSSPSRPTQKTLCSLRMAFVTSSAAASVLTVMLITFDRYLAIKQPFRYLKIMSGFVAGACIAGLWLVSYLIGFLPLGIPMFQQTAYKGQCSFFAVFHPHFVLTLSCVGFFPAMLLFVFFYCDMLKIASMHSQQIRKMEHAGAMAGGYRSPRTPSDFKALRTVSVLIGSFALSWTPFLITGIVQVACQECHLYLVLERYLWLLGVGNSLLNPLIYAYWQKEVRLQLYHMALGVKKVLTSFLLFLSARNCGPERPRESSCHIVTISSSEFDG
The following applies: previously reported human microbiome-derived FAA GPCR modulator; read-out: GPR119 agonist at (previously reported); cited from earlier work.

For the compound `CCCCCCCC/C=C\CCCCCCCC(=O)NC(CO)CO` [oleoyl serinol], the EC50 was 7 µM.
